Reference: patent publication US7442375B2, “Compositions of beta-defensin inducing agents” (Case Western Reserve University, priority 2002, dated 2008)
Read-outs that look alike come from different tables or passages of the source. Positions of bridges follow the written chain, without caps; N, C: chain ends. No end group written: not given here.

Assays:
hBD-3 mRNA [1] = details: 1.7 mM in culture medium, epidermal cells; cited from earlier work
hBD-2 mRNA [2] = details: 1.7 mM in culture medium, epidermal cells; cited from earlier work
[3] = tested on: epithelial beta defensin genes; details: appears to involve NF-kappaB/rel; cited from earlier work
hBD-3 mRNA [4] = experiment: Real-time RT-PCR assay to quantify hBD mRNA in NHOEC; assay type: cell-based; details: normal human oral epithelium and cells; positive control of FIG. 3
Protocol: (§1) NHOEC monolayers were exposed to X4 HIV-1 strains B-HXB2 and B-NL4-3 or R5 strains B-93US142 and B-92US660 at an MOI of 0.01 infectious unit/cell. After 48 h, hBD-1, -2, and -3 mRNA expression was determined by real-time PCR. (a) Standard curves generated using the relationship of known number of input templates to the cycle threshold (i.e., PCR cycle number at which the mean fluorescence increases to 10 SD above baseline). Cycle threshold is directly proportional to the log of the input copy equivalents. Linear dynamic ranges and regression values are indicated. (b) Quantification of hBD mRNA in the presence and absence of HIV-1. (c) Comparison of hBD expression relative to the uninfected culture. PMA, phorbol myristate acetate, positive control. Results are representative of three independent experiments.
(§2) RNA was extracted from NHOEC monolayers post HIV-1 challenge [multiplicity of infection (MOI), 0.01 infectious unit/cell] using TRIzol according to the manufacturer's protocol (Invitrogen Life Technologies, Carlsbad, Calif., USA). Human keratin 5 RNA was used to normalize RNA content in each preparation. Intron spanning primers used and PCR conditions for these reactions have been described previously [Krisanaprakorkit et al., 1998 and 2000; Harder et al.]. Each 25-μl PCR mixture consisted of 125 ng RNA, primers (0.4 μM each), 0.4 mM dNTPs, 5 mM MgCl2, a mixture of reverse transcriptase and Taq DNA polymerase, 1 3 PCR buffer, RNase inhibitor (5 U), and SYBR Green dye diluted 1:2500 (Sigma, St. Louis, Mo., USA) as described [Weber et al.]. Standard curves were constructed using RNA generated by transcribing hBD-1, -2, or -3 plasmids using the RiboProbe in vitro transcription system (Promega, Madison, Wis., USA). Concentration of mRNAs was determined by spectrometry at 260 nm. […]
(§3) NHOEC monolayers were challenged with four different HIV-1 strains representing both viral bio-phenotypes (i.e., SI/X4, B-HXB2 and B-NL4-3; NSI/R5, B-93US142 and B-92US660) Forty-eight hours postinfection, hBD-1, -2, and -3 mRNA expression was measured by real-time PCR. […]

hBD-2 mRNA [5] = experiment: as above; assay type: cell-based; details: normal human oral epithelium and cells; positive control of FIG. 3
Protocol: as §1, §2, §3

hBD-1 mRNA = experiment: as above; assay type: cell-based; details: normal human oral epithelium and cells; positive control of FIG. 3
Protocol: as §1, §2, §3

HIV-1 R5 B-93US142 = assay type: cell-based
Protocol: (§4) HIV-1 strains (X4 HXB2 and R5 93US142) were incubated in 10 mM PB with increasing concentrations of hBD and used to infect GHOST X4/R5 cells. (a) Qualitative determination of HIV-1 infection, measured by GFP fluorescence, in the absence (−C) and presence (+C) of virus preincubated in 10 mM PB. (b) Anti-HIV-1 activity of hBD in GHOST X4/R5 cells using fluorescence microscopy. (c) Anti-HIV-1 activity of hBD measured by RT activity in cell-free culture supernatant, relative to the positive control (i.e., HIV-1 infection in the absence of hBD). (d) Antiretroviral activity of hBD against CXCR4- and CCR5-tropic HIV-1 strains in three different environments: DMEM+10% FBS (complete medium); DMEM alone (Medium no FBS); 10 mM PB. Viruses were incubated with 20 μg/ml of each hBD for 1 h in each condition and used to infect CEM X4/R5 cells as described. Results are representative of three independent experiments.
(§5) HIV-1 isolates were incubated with increasing concentrations (5-40 μg/ml) of hBD-1, -2, and -3, in three different conditions: high salt complete medium (RPMI-1640 or DMEM supplemented with 10% fetal bovine serum, FBS); high salt medium in the absence of FBS; or low salt medium (10 mM phosphate buffer), 37° C. for 1 h. Respective mixtures were used to infect PBMC, Ghost X4/R5 or CEM X4/R5 cells at an MOI of […]. After 2 h incubation at 37° C., 5% CO2, cells were washed three times with phosphate-buffered saline (PBS) and cultured in complete medium for 48 h. In the case of Ghost X4/R5 cells, these were washed, resuspended in PBS, and analyzed by fluorescence microscopy for GFP expression as described [Morner et al.]. Cell-free supernatants from PBMC, Ghost X4/R5 and CEM X4/R5 cultures were used to monitor infectivity by the reverse transcriptase (RT) assay [Quinones-Mateu et al.]. The 50% inhibitory concentration (IC50) of each hBD was determined using X4 or R5 HIV-1 isolates. Viruses (0.01 MOI) were incubated with increasing concentrations of hBD-1, -2, and 3 (up to 40 µg/ml) in low salt medium for 1 h and used to infect CEM X4/R5 cells. After 2 h incubation at 37° C., 5% CO2, cells were washed twice with PBS and cultured in complete medium. Supernatant samples were removed on day 5 post-infection and virus production was measured using […] the RT assay [Id.]. Cytotoxicity of hBD was quantified by determining the number of viable cells using a tetrazolium-based colorimetric (MTT) assay [Pauwels et al.].
(§6) Since the antibacterial activity of beta-defensins is sensitive to high salt and serum concentrations, the anti-HIV-1 activity of hBD was initially evaluated in a low salt, serum free environment, mimicking oral mucosal conditions [Mandel et al.]. Two HIV-1 isolates (X4 B-HXB2 and R5 B-93US142) were preincubated for 1 h with increasing concentrations of recombinant hBD-1, -2, and -3, in 10 mM phosphate buffer (PB). GHOST CCR5/CXCR4 cells were then exposed to the mixtures for 48 h in complete medium. […] When CXCR4- and CCR5-tropic HIV-1 strains were preincubated with beta-defensins in high salt medium (DMEM) supplemented with 10% FBS, no antiviral effect was detected (FIG. 4d). However, preincubation in DMEM without FBS inhibited replication of X4, but not R5, HIV-1 isolates (FIG. 4d). Under low salt conditions (i.e., 10 mM PB, no FBS) the 50% inhibitory concentration for both agents against X4 and R5 viruses ranged from 9 to 19 μg/ml and 20 to 40 μg/ml, respectively.

HIV-1 X4 B-HXB2 = assay type: cell-based
Protocol: as §4, §5, §6

CCR5 = CCR5 (Homo sapiens, UniProt P51681); experiment: Flow cytometric analysis of co-receptor surface expression on unstimulated PBMC; assay type: cell-based; design: endogenous in cells; host or cells: unstimulated peripheral blood mononuclear cells (PBMC); details: 30 μg/ml, 3 h, high salt medium without FBS
Protocol: (§7) Unstimulated PBMC were treated for 3 hrs with hBD-1, -2, or -3 (30 μg/ml) in DMEM (high salt) in the absence of FBS. The CXCR4 natural ligand SDF-1AE (2 μg/ml) and the CCR5 antagonist PSC-RANTES (100 nM) were used as positive controls. CXCR4 and CCR5 surface expression was calculated using known ratios of QuantiBRITE-PE beads (Becton Dickenson) by flow cytometry. Results are the means of seven experiments±SD.
(§8) Unstimulated PBMC were treated with 30 μg/ml hBD-1, -2, or -3 in high salt medium (RPMI-1640) in the absence of FBS, 3 h. The CXCR4 natural ligand SDF-1α (R&D Systems, Minneapolis, Minn., USA) and the CCR5 antagonist PSC-RANTES were used as controls. Cells were incubated with peridinin chlorophyll protein-conjugated anti-human CD4 antibody, and either phycoerythrin (PE)-conjugated anti-human CXCR4 antibody, PE-conjugated anti-human CCR5 antibody, or PE-conjugated mouse immunoglobulin G2a (IgG2a), isotype standard (PharmMingen, San Diego, Calif., USA) [Salkowitz et al.]. Fluorescence intensity was reported as receptor density by quantitative flow cytometry (FACSCaliber; Becton Dickenson, San Jose, Calif., USA) [Iyer et al.]. Data were analyzed using CELLQuest software (Becton Dickenson).
(§9) Surface expression of CXCR4 was decreased by 51%±18% and 52%±20% (SD) respectively after incubation with 30 μg/ml of hBD-2 or hBD-3 (FIG. 5).

CXCR4 = CXCR4 (Homo sapiens, UniProt P61073); experiment: as above; assay type: cell-based; design: endogenous in cells; host or cells: unstimulated peripheral blood mononuclear cells (PBMC); details: 30 μg/ml, 3 h, high salt medium without FBS
Protocol: as §7, §8, §9

[6] = 20 μg/ml, preincubation in 10 mM PB
[7] = virus preincubated 1 h with hBD in 10 mM PB, GHOST cells 48 h, GFP fluorescence

Sequence of CCR5 (P51681 whole entry): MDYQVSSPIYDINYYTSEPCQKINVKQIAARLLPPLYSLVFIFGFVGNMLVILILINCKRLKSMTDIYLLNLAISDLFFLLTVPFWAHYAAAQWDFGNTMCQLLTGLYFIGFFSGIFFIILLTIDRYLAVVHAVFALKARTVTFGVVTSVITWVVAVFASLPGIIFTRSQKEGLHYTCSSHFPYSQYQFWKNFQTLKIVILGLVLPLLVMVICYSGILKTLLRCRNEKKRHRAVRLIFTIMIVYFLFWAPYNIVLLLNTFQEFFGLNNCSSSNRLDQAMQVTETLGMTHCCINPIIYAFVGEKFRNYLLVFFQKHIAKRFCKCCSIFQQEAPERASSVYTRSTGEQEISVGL
Sequence of CXCR4 (P61073 whole entry): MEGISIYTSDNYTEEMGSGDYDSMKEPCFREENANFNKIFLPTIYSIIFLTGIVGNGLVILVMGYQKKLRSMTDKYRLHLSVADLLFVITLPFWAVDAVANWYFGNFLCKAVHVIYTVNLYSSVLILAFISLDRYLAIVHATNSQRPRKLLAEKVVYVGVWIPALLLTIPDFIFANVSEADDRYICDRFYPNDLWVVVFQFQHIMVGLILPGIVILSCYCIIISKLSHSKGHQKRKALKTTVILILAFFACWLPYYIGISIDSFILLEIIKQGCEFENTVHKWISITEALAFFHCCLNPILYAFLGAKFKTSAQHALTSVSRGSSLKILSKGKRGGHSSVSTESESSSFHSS

[Ca+2] [calcium]
HBD-3 mRNA expression (hBD-3 mRNA [1]): sufficient to induce
HBD-2 mRNA expression (hBD-2 mRNA [2]): sufficient to induce

CC[C@H](C)[C@H](N)C(=O)O [isoleucine-1]
transcription of epithelial beta defensin genes [3]: can activate transcription

CCCCCCCCCCCCCC(=O)O[C@@H]1[C@@H](C)[C@@]2(O)[C@@H](C=C(CO)C[C@]3(O)C(=O)C(C)=C[C@@H]23)[C@@H]2C(C)(C)[C@]12OC(C)=O [phorbol myristate acetate]
HBD-3 mRNA expression (hBD-3 mRNA [4]): induces
HBD-2 mRNA expression (hBD-2 mRNA [5]): induces
HBD-1 mRNA expression (hBD-1 mRNA): not

GIGDPVTCLKSGAICHPVFCPRRYKQIGTCGLPGTKCCKKP (disulfide 8-37, 15-30, 20-38) [hBD-2]
inhibition (RT activity relative to positive control) (HIV-1 R5 B-93US142; [6]): 15%
inhibition (RT activity relative to positive control) (HIV-1 X4 B-HXB2; [6]): 61%

hBD-1: Recombinant human β-defensin 1 produced from infection of Sf21 cells with baculovirus constructs (DHYNCVSSGGQCLYSACPIFTKIQGTCYRGKAKCCK; ends and bridges not checked; cysteine pairing not given here; UniProt P60022 33-68, looked up)
anti-HIV-1 activity (HIV-1 R5 B-93US142; [7]): no effect
anti-HIV-1 activity (HIV-1 X4 B-HXB2; [7]): no effect
effect on CCR5 expression (CCR5): not altered
effect on surface expression of CXCR4 (CXCR4): did not affect
